From US10183013B2, “Cyclic sulfonamide containing derivatives as inhibitors of hedgehog signaling pathway” (NantBioScience, Inc., priority 2012, dated 2019)
Like-named read-outs stand apart in the source and are kept apart here.

Columns and labels:
[1] = test system: Hedgehog signalling (Gli-bla NIH3T3 cells, mShh stimulated); experiment: Hedgehog signalling inhibition assay (Gli-Bla reporter assay in NIH 3T3 cells); type: cell-based
Experimental: Hedgehog signalling inhibition assays. The following table 2 represents the average EC50 values for particular compounds of the inventions. Gli-bla NIH3T3 cells (7500 cells/well) were plated the day prior to the assay in a 384-well and 96-format in complete growth medium. […] Cells were stimulated with mShh for 24 hours and then loaded with LiveBLAzer™-FRET B/G Substrate for 3 hours. Emission values at 460 nm and 530 nm were obtained using a standard fluorescence plate reader and the 460/530 Ratios plotted for each treatment (n=4 for each data point).
J. Cancer, 2011, 30(7):472-81).

SMO = biological target: T1, SMO (Homo sapiens, UniProt Q99835); experiment: SMO BODIPY-CYC binding assay using HEK293H cells
T1 construct: host or cells: HEK293H cells
T1 sequence (Q99835 28-787): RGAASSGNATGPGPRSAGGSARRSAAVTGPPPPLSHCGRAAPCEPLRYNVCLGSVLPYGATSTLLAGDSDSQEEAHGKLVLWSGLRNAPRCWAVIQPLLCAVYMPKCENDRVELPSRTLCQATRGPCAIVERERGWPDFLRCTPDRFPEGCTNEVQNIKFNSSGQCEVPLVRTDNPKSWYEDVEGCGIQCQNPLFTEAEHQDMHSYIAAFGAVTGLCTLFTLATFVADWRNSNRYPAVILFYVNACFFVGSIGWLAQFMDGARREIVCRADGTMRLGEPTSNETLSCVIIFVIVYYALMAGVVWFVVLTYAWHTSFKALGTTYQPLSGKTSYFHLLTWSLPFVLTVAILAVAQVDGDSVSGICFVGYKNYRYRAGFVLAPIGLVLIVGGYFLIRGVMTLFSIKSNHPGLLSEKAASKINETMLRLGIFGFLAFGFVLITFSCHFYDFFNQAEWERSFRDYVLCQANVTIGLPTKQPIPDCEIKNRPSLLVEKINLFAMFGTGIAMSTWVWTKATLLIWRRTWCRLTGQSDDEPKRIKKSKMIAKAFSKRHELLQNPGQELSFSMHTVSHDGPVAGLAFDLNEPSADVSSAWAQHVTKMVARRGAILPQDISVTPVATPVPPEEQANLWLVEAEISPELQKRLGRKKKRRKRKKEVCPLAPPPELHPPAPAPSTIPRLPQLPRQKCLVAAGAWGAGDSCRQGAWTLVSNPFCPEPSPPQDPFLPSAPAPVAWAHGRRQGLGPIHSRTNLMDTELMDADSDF

[2] = Mus musculus, NIH3T3, 24 h, read-out: EC50

SMILES	EC50 [1, 2]	also measured
O=C(Nc1cc(NC(=O)c2ccc(N3CCOCS3(=O)=O)cc2Cl)ccc1Cl)c1ccc(Cl)cc1 [Example 126, 2-chloro-N-(4-chloro-3-(4-chlorobenzamido)phenyl)-4-(3,3-dioxido-1,3,4-oxathiazinan-4-yl)benzamide]	< 10 nM	
O=C(Nc1cc(NC(=O)c2ccc(N3CCOCS3(=O)=O)cc2Cl)ccc1Cl)c1nccs1 [Example 127, N-(2-chloro-5-(2-chloro-4-(3,3-dioxido-1,3,4-oxathiazinan-4-yl)benzamido)phenyl)thiazole-2-carboxamide]	< 10 nM	
O=C(Nc1ccc(Cl)c(NC(=O)c2cccc(Cl)c2)c1)c1ccc(N2CCCCS2(=O)=O)cc1 [Example 128]	< 10 nM	
O=C(Nc1ccc(Cl)c(NC(=O)c2cccc(Cl)c2)c1)c1ccc(N2CCCS2(=O)=O)cc1 [Example 129]	< 10 nM	
O=C(Nc1cc(NC(=O)c2ccc(N3CCOCS3(=O)=O)cc2Cl)ccc1Cl)c1cccc(Cl)c1 [Example 130]	< 10 nM	
O=C(Nc1ccc(Cl)c(Oc2cccc(Cl)c2)c1)c1ccc(N2CCCS2(=O)=O)cc1Cl [Example 131]	< 10 nM	
O=C(Nc1ccc(Cl)c(NC(=O)c2cccc(Cl)c2)c1)c1ccc(N2CCCS2(=O)=O)c(Cl)c1 [Example 132]	< 10 nM	
O=C(Nc1ccc(Cl)c(NC(=O)c2ccccc2Cl)c1)c1ccc(N2CCOCS2(=O)=O)cc1Cl [Example 133, 2-chloro-N-(4-chloro-3-(2-chlorobenzamido)phenyl)-4-(3,3-dioxido-1,3,4-oxathiazinan-4-yl)benzamide]	< 10 nM	
O=C(Nc1cc(NC(=O)c2ccc(N3CCCS3(=O)=O)cc2Cl)ccc1Cl)c1ccccc1 [Example 134]	< 10 nM	
O=C(Nc1cc(NC(=O)c2ccc(N3CCCS3(=O)=O)cc2Cl)ccc1Cl)c1cccnc1 [Example 135, N-(2-chloro-5-(2-chloro-4-(1,1-dioxidoisothiazolidin-2-yl)benzamido)phenyl) nicotinamide]	< 10 nM	
O=C(Nc1cc(NC(=O)c2ccc(N3CCOCS3(=O)=O)cc2Cl)ccc1Cl)c1cccnc1 [Example 136]	< 10 nM	
O=C(Nc1ccc(Cl)c(Oc2cccc(Cl)c2)c1)c1ccc(N2CCOCS2(=O)=O)cc1Cl [Example 137]	< 10 nM	
O=C(Nc1ccc(Cl)c(Oc2cccc(Cl)c2)c1)c1ccc(N2CCCS2(=O)=O)cc1 [Example 138]	< 10 nM	
O=C(Nc1ccc(Cl)c(Oc2cccc(Cl)c2)c1)c1ccc(N2CCCS2(=O)=O)c(F)c1 [Example 139]	< 10 nM	
CC(=O)Nc1cc(NC(=O)c2ccc(N3CCCS3(=O)=O)cc2Cl)ccc1Cl [Example 140]	1000 nM	
O=C(Nc1ccc(Oc2cccc(Cl)c2)cc1)c1ccc(N2CCCS2(=O)=O)cc1Cl [Example 141]	< 10 nM	
O=C(Nc1ccc(Oc2cccc(Cl)c2)cc1)c1ccc(N2CCOCS2(=O)=O)cc1Cl [Example 142]	< 10 nM	
CC(=O)Nc1cc(NC(=O)c2ccc(N3CCOCS3(=O)=O)cc2Cl)ccc1Cl [Example 143]	< 10 nM	
CS(=O)(=O)c1ccc(C(=O)Nc2ccc(Cl)c(-c3ccccn3)c2)c(Cl)c1 [GDC-0449, reference compound]		EC50 ([1]; Mus musculus, NIH3T3, NIH 3T3 cells, read-out: Gli-Bla reporter assay (EC50)): 7 nM
Cc1nn(-c2ccccc2)c(C)c1/C=N/N1CCN(Cc2ccccc2)CC1 [Sant-1, reference compound]		EC50 ([1]; NIH 3T3 cells, read-out: Gli-Bla reporter assay (EC50)): 5 nM; EC50 (SMO): 0.592 nM
